Data from ChEMBL document CHEMBL5257037, “Side Chain Cyclized Aromatic Amino Acids: Great Tools as Local Constraints in Peptide and Peptidomimetic Design” (J Med Chem, 2016).
Values belong to the compound of their own block, whether it stands above or below them. *1 amine or outer side, *2 acyl side, *3 side chain or, on linkers, in order; H or OH if unused. Where a SMILES comes first, the peptide text is derived from it. [ ]: non-standard residue; d: D form. X1 = O=C([C@@H](N[*:1])[C@H]1CCc2ccccc21)[*:2]; Tic = O=C(O)[C@@H]1Cc2ccccc2CN1

What was measured:
Substance-P receptor [1] = target: Substance-P receptor (Rattus norvegicus, UniProt P14600); experiment: Inhibition of [125I]BHSP binding to neurokinin receptor 1 in rat brain synaptosomes; type: subcellular, Synaptosome
[2] = target: T1, Angiotensin-converting enzyme (Homo sapiens, UniProt P12821); experiment: Binding affinity to angiotensin-converting enzyme (unknown origin) assessed as inhibition constant
[3] = Inhibition of farnesyltransferase (unknown origin); parameters: species or system Homo sapiens
Neprilysin = Neprilysin (Homo sapiens, UniProt P08473); experiment: Binding affinity to neutral endopeptidase (unknown origin) assessed as inhibition constant
B2 bradykinin receptor [4] = target: T2, B2 bradykinin receptor (Homo sapiens, UniProt P30411); experiment: Binding affinity to B2 bradykinin receptor (unknown origin)
T2 sequence (P30411 whole entry): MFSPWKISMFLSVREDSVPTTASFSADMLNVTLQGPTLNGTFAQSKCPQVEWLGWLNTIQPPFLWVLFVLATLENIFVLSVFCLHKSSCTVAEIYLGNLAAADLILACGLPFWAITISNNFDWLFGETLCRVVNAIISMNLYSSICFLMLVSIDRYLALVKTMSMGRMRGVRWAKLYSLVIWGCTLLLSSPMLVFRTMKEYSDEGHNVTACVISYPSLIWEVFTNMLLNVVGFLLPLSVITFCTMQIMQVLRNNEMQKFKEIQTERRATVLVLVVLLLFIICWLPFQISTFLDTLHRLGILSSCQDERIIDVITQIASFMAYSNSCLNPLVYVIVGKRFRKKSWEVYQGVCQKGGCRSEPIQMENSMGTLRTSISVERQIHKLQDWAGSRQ

B2 bradykinin receptor [5] = target: T2, B2 bradykinin receptor; experiment: Antagonist potency at B2 bradykinin receptor (unknown origin); conditions: read-out: pA2 (converted)
[6] = target: T1, Angiotensin-converting enzyme; experiment: Inhibition of angiotensin-converting enzyme (unknown origin)
Substance-P receptor [7] = target: Substance-P receptor (Homo sapiens, UniProt P25103); experiment: Inhibition of [3H]SP binding to human neurokinin receptor 1 expressed in CHO cells; type: cell-based

Compound: CC[C@H](C)[C@H](NC(=O)CNC(=O)[C@H](Cc1ccccc1)NC(=O)[C@@H]1Cc2ccccc2CN1C(=O)[C@H](CCC(N)=O)NC(=O)[C@H](CCC(=O)O)NC(=O)[C@H](CCCCN)NC(=O)[C@@H]1CCCN1C(=O)[C@@H](N)CCCNC(=N)N)C(=O)N[C@@H](CCSC)C(=O)O (H-RPKEQ[Tic]FGIM-OH)
IC50 (Substance-P receptor [1]): 2400 nM

Compound: O=C(O)CN1Cc2ccccc2C[C@H](N[C@@H](CCc2ccccc2)C(=O)O)C1=O
Ki [2]: 10 nM

Compound: O=C(O)[C@H](CCc1ccccc1)N[C@H]1Cc2ccccc2[C@H]2CCC[C@@H](C(=O)O)N2C1=O
Ki (Neprilysin): > 10 nM
Ki [2]: 0.004 nM

Compound: N=C(N)NCCC[C@@H](N)C(=O)N[C@@H](CCCNC(=N)N)C(=O)N1CCC[C@H]1C(=O)N1C[C@H](O)C[C@H]1C(=O)NCC(=O)N[C@@H](Cc1cccs1)C(=O)N[C@@H](CO)C(=O)N1CCC[C@@]12Cc1ccccc1CN(CC(=O)N[C@@H](CCCNC(=N)N)C(=O)O)C2=O
Ki (B2 bradykinin receptor [4]; read-out: pKi (converted)): 3.16 nM
Kb (B2 bradykinin receptor [5]): 2000 nM

Compound: O=C(O)CN1C(=O)[C@@H](N[C@@H](CCc2ccccc2)C(=O)O)CCc2ccccc21 [BENAZEPRILAT]
IC50 [6]: 1.7 nM

Compound: CSCC[C@H](NC(=O)[C@@H]1Cc2ccccc2CN1C(=O)[C@@H](NC(=O)[C@H](CS)NC(=O)[C@@H](N)CCCCN)C(C)C)C(=O)O
IC50 [3]: 20 nM

Compound: C[C@H](N[C@@H](CCc1ccccc1)C(=O)O)C(=O)N1CCc2ccccc2[C@H]1C(=O)O
IC50 [6]: 5.8 nM

Compound: N=C(N)NCCCC(NC(=O)CN1CCCCC2(CCCN2C(=O)[C@H](CO)NC(=O)[C@H](Cc2ccccc2)NC(=O)CNC(=O)[C@@H]2CCCN2C(=O)[C@@H]2CCCN2C(=O)[C@@H](N)CCCNC(=N)N)C1=O)C(=O)O (mixture of isomers; 68)
Ki (B2 bradykinin receptor [4]; read-out: pKi (converted)): 251 nM

Compound: CSCC[C@H](NC(=O)[C@H]1Cc2ccccc2CN1C(=O)[C@@H](NC(=O)[C@H](CS)NC(=O)[C@@H](N)CCCCN)C(C)C)C(=O)O
IC50 [3]: 100000 nM

Compound: N=C(N)NCCC[C@@H](N)C(=O)N[C@@H](CCCNC(=N)N)C(=O)N1CCC[C@H]1C(=O)N1C[C@H](O)C[C@H]1C(=O)NCC(=O)N[C@@H](Cc1cccs1)C(=O)N[C@@H](CO)C(=O)N1Cc2ccccc2C[C@@H]1C(=O)N1Cc2ccccc2C[C@H]1C(=O)N[C@@H](CCCNC(=N)N)C(=O)O
Ki (B2 bradykinin receptor [4]; read-out: Ki): 0.38 nM
Kb (B2 bradykinin receptor [5]): 0.794 nM

Compound: CSCC[C@H](NC(=O)C1CC=CCN1C(=O)[C@@H](NC[C@@H](N)CS)C(C)C)C(=O)O (stereo partly specified)
IC50 [3]: 270 nM

Compound: N=C(N)NCCCC(NC(=O)CN1CCCCC2(CCCN2C(=O)[C@H](CO)NC(=O)[C@H](Cc2ccccc2)NC(=O)CNC(=O)[C@@H]2CCCN2C(=O)[C@@H]2CCCN2C(=O)[C@@H](N)CCCNC(=N)N)C1=O)C(=O)O (mixture of isomers; 67)
Ki (B2 bradykinin receptor [4]; read-out: pKi (converted)): 1260 nM

Compound: H-RPKEQFFGIM-OH
IC50 (Substance-P receptor [1]): 0.64 nM

Compound: C[C@H](N[C@@H](CCc1ccccc1)C(=O)O)C(=O)N1Cc2ccccc2[C@H]1C(=O)O
IC50 [6]: 44 nM

Other lines, results leading:

IC50 [3]: 1000 nM
Compound: H-KCVFM-OH

IC50 [3]: 1 nM
Compound: CSCC[C@H](NC(=O)[C@@H]1Cc2ccccc2CN1C(=O)[C@@H](NC(=O)[C@@H](N)CS)C(C)C)C(=O)O (H-CV[Tic]M-OH)

Ki (B2 bradykinin receptor [4]; read-out: pKi (converted)): 501 nM
Compound: C[C@H](C(=O)N[C@@H](CCCNC(=N)N)C(=O)O)N1Cc2ccccc2C[C@@H](NC(=O)[C@H](CO)NC(=O)[C@H](Cc2ccccc2)NC(=O)CNC(=O)[C@@H]2CCCN2C(=O)[C@@H]2CCCN2C(=O)[C@@H](N)CCCNC(=N)N)C1=O

Ki (Substance-P receptor [7]): 63 nM
Compound: CC(C)C[C@H](NC(=O)CNC(=O)OCc1ccccc1)C(=O)N1Cc2[nH]c3ccccc3c2C[C@H]1C(=O)OCc1cc(C(F)(F)F)cc(C(F)(F)F)c1

IC50 (Substance-P receptor [1]): 3 nM
Compound: CC[C@H](C)[C@H](NC(=O)CNC(=O)[C@H](Cc1ccccc1)NC(=O)[C@@H](NC(=O)[C@H](CCC(N)=O)NC(=O)[C@H](CCC(=O)O)NC(=O)[C@H](CCCCN)NC(=O)[C@@H]1CCCN1C(=O)[C@@H](N)CCCNC(=N)N)[C@H]1CCc2ccccc21)C(=O)N[C@@H](CCSC)C(=O)O (H-RPKEQ[X1]FGIM-OH)

Ki (B2 bradykinin receptor [4]; read-out: pKi (converted)): 25.1 nM
Kb (B2 bradykinin receptor [5]): 3160 nM
Compound: N=C(N)NCCC[C@@H](N)C(=O)N[C@@H](CCCNC(=N)N)C(=O)N1CCC[C@H]1C(=O)N1C[C@H](O)C[C@H]1C(=O)NCC(=O)N[C@@H](Cc1cccs1)C(=O)N[C@@H](CO)C(=O)N1CCC[C@]12Cc1ccccc1CN(CC(=O)N[C@@H](CCCNC(=N)N)C(=O)O)C2=O

Ki (B2 bradykinin receptor [4]; read-out: pKi (converted)): 200 nM
Compound: N=C(N)NCCC[C@@H](N)C(=O)N[C@@H](CCCNC(=N)N)C(=O)N1CCC[C@H]1C(=O)N1C[C@H](O)C[C@H]1C(=O)NCC(=O)N[C@@H](Cc1cccs1)C(=O)N[C@@H](CO)C(=O)N[C@H]1Cc2ccccc2CN(CC(=O)N[C@@H](CCCNC(=N)N)C(=O)O)C1=O

IC50 [3]: 0.6 nM
Compound: CSCC[C@H](NC(=O)[C@@H]1Cc2ccccc2CN1C(=O)[C@@H](NC[C@@H](N)CS)C(C)C)C(=O)O
